# Experiment: Stability of M4N formulations at room temperature (time to crystallized precipitation)
# Format: physicochemical
# Procedure: A 10 mL solution of M4N at a concentration of about 10 mg/mL in 40% BP-β-CD was made as follows. About 10 mL of the 40% HP-β-CD solution were added to a glass beaker containing a stir bar. The beaker was placed on a magnetic plate and the stir bar was set to stir at medium speed. About […] of M4N were slowly added to the 40% HP-β-CD in the center of the beaker with the aid of a spatula. The M4N/40% HP-β-CD mixture was stirred for 2 hr or until all M4N was uniformly suspended without any clumps being present. The M4N/40% HP-β-CD mixture was optionally heated at 80° C. for about 30 min. (or longer if a larger volume of solution was desired, for example, 1 hr at 80° C. for 100 mL of the M4N/HP-β-CD mixture), or longer as needed to ensure complete dissolution of M4N. […] The final M4N/40% HP-β-CD solution was stored at room temperature and was kept protected from light. This process may be scaled up or down to obtain the requisite volume or concentration of M4N. Formulations containing M4N in other cyclodextrin solutions may be similarly made, such as, for example, by substituting HP-β-CD in the process described above with other cyclodextrins.
# A 100 mL solution of M4N at a concentration of about 25 mg/mL in PEG 300 was made as follows. About 100 mL of PEG 300 were added to a glass beaker containing a stir bar. The beaker was placed on a magnetic plate and the stir bar was set to stir at medium speed. About 2.5 g of M4N were slowly added to the PEG 300 in the center of the beaker with the aid of a spatula to prevent M4N from sticking to the beaker wall. The M4N/PEG 300 mixture was stirred for 24 hr or until all M4N had dissolved or was uniformly suspended without any clumps being present. The M4N/PEG 300 mixture was optionally heated at about 60° C. for about 30 min. (or longer if a larger volume of solution was desired, for example, 1 hr at 60° C. for 500 mL of the M4N/PEG 300 mixture), or longer as needed to ensure complete dissolution of M4N. […] If crystals formed, the M4N/PEG 300 solution could be heated again at 60° C. for about 1 hr, with stirring, on a hot magnetic plate until all M4N was dissolved back in solution. The final M4N/PEG 300 solution was stored at room temperature and was kept protected from light. This process may be scaled up or down to obtain the requisite volume or concentration of M4N. Formulations containing M4N in other PEGs may be similarly made, such as, for example, by substituting PEG 300 in the process described above with PEG 400 or PEG 400 monolaurate.
# Formulations containing M4N in other water-insoluble lipids combined with non-ionic, ionic or amphipathic surfactants or water-soluble organic solvents may be similarly made, such as, for example, by substituting sesame oil in the process described above with corn oil, olive oil, soybean oil, peppermint oil, or mineral oil and substituting Tween® 20 with Tween® 80, TPGS, lecithin, PEG 300, PEG 400, PEG 400 monolaurate, glycerol, PVP, PG, or other solubilizing agents, and combinations thereof. Stability in reference to the clear liquid solutions herein refers to the time it takes to form crystallized precipitation in solution. A stable solution is one that is clear and free of particulates for an extended period of time.
structure (smiles),measurement,setting,value
"COc1ccc(C[C@@H](C)[C@@H](C)Cc2ccc(OC)c(OC)c2)cc1OC [Formulation M4N, meso-1,4-bis(3,4-dimethoxyphenyl)-2,3-dimethylbutane]",Stability at Room Temperature,"0.3% (v/v) Piperin, 49.8% (v/v) PEG 400, 49.8% (v/v) Tween ® 20, M4N 60 mg/mL, suspension",>9 days
same,Stability at Room Temperature,"0.4% (v/v) Cinnamadehyde, 49.8%(v/v) PEG 400, 49.8% (v/v) Tween ® 20, M4N 60 mg/mL",>4 days
same,Stability at Room Temperature,"0.4% (v/v) Cinnamaldehyde, 4.6% (v/v) Peppermint Oil, 47.5% (v/v) PEG 400, 47.5% (v/v) Tween ® 20, M4N 60 mg/mL",>2 days
same,Stability at Room Temperature,"0.4% (v/v) Eugenol, 49.8% (v/v) Tween ® 20, 49.8% (v/v) PEG 400, M4N 60 mg/mL",>2 days
same,Stability at Room Temperature,"3% (w/v)Glycerol Monostearate, 48.5% (v/v) PEG 400, 48.5% (v/v) Tween ® 20, M4N 60 mg/mL",>1 days
same,Stability at Room Temperature,"5% (v/v) Peppermint Oil, 47.5% (v/v) Tween ® 20, 47.5% (v/v) PEG 400, M4N 60 mg/mL",>2 days
same,Stability at Room Temperature,"10% TPGS (w/v), 50% PEG 400 (v/v), M4N 50 mg/ml, suspension",>7 days
same,Stability at Room Temperature,"25%(w/v) Lecithin, 37.5% (v/v) PEG 400, 37.5% (v/v) Tween ® 20, M4N 60 mg/mL",>14 days
same,Stability at Room Temperature,"47.5% (v/v) Tween ® 20, 47.5% (v/v) PEG 400, 2.5% (w/v) Beeswax 2.5% (w/v) PEG 3350, M4N 60 mg/mL",>4 days
same,Stability at Room Temperature,"47.5% Tween ® 20 (v/v), 47.5% PEG 400 (v/v), 5% Beeswax (w/v), M4N 200 mg/g, waxy solid",>3 days
same,Stability at Room Temperature,"50% Tween ® 20 (v/v), 50% PEG 400 (v/v), M4N 30 mg/ml",>3 days
same,Stability at Room Temperature,"50% Tween ® 20 (v/v), 50% PEG 400 (v/v), M4N 40 mg/ml",>3 days
same,Stability at Room Temperature,"50% Tween ® 20 (v/v), 50% PEG 400 (v/v), M4N 50 mg/ml",>3 days
same,Stability at Room Temperature,"50% Tween ® 20 (v/v), 50% PEG 400 (v/v), M4N 60 mg/ml",>3 days
same,Stability at Room Temperature,"50.3% (v/v) Tween ® 20, 44.6% (v/v) PEG 400, 2.4% (w/v) Beeswax, 2.4% (w/v) PEG 3350, 0.3% (w/v) Naringenin, M4N 60 mg/mL",>4 days
same,Stability at Room Temperature,"Glycerol Monoleate 100% (w/v), M4N 0.10 mg/ml, remains in suspension, can be mixed back together",for up to 10 days
same,Stability at Room Temperature,"Glycerol Monoleate 100% (w/v), M4N 0.25 mg/ml, remains in suspension, can be mixed back together",for up to 10 days
same,Stability at Room Temperature,"Glycerol Monoleate 100% (w/v), M4N 1.00 mg/ml, remains in suspension, can be mixed back together",for up to 10 days
same,Stability at Room Temperature,"Glycerol Monoleate 100% (w/v), M4N 5.0 mg/ml, remains in suspension, can be mixed back together",for up to 10 days
same,Stability at Room Temperature,"Glycerol Monoleate 100% (w/v), M4N 10.0 mg/ml, remains in suspension, can be mixed back together",for up to 10 days
same,Stability at Room Temperature,"Glycerol Monoleate 100% (w/v), M4N 12.0 mg/ml, remains in suspension, can be mixed back together",for up to 10 days
same,Stability at Room Temperature,"Glycerol Monoleate 100% (w/v), M4N 15.0 mg/ml, remains in suspension, can be mixed back together",for up to 10 days
same,Stability at Room Temperature,"Glycerol Monoleate 100% (w/v), M4N 17.5 mg/ml, remains in suspension, can be mixed back together",for up to 10 days
same,Stability at Room Temperature,"Glycerol Monoleate 100% (w/v), M4N 20.0 mg/ml, remains in suspension, can be mixed back together",for up to 10 days
same,Stability at Room Temperature,"Glycerol Monoleate 100% (w/v), M4N 25.0 mg/ml, remains in suspension, can be mixed back together",for up to 10 days
same,Stability at Room Temperature,"Glycerol Monoleate 100% (w/v), M4N 30.0 mg/ml, remains in suspension, can be mixed back together",for up to 10 days
same,Stability at Room Temperature,"Glycerol Monoleate 100% (w/v), M4N 40.0 mg/ml, remains in suspension, can be mixed back together",for up to 10 days
same,Stability at Room Temperature,"Glycerol Monoleate 100% (w/v), M4N 50.0 mg/ml, remains in suspension, can be mixed back together",for up to 10 days
same,Stability at Room Temperature,"Glycerol Monoleate 100% (w/v), M4N 60.0 mg/ml, remains in suspension, can be mixed back together",for up to 10 days
same,Stability at Room Temperature,"Glycerol Monoleate 100% (w/v), M4N 65.0 mg/ml, remains in suspension, can be mixed back together",for up to 10 days
same,Stability at Room Temperature,"Glycerol Monoleate 100% (w/v), M4N 70.0 mg/ml, remains in suspension, can be mixed back together",for up to 10 days
same,Stability at Room Temperature,"Glycerol Monoleate 100% (w/v), M4N 80.0 mg/ml, remains in suspension, can be mixed back together",for up to 10 days
same,Stability at Room Temperature,"Glycerol Monoleate 100% (w/v), M4N 100.0 mg/ml, remains in suspension, can be mixed back together",for up to 10 days
same,Stability at Room Temperature,"Glycerol Monoleate 100% (w/v), M4N 200.0 mg/ml, remains in suspension, can be mixed back together",for up to 10 days
same,Stability at Room Temperature,"Glycerol Monoleate 100% (w/v), M4N 300.0 mg/ml, remains in suspension, can be mixed back together",for up to 10 days
same,Stability at Room Temperature,"Labrafil ® 100%, M4N 60 mg/mL",>4 days
same,Stability at Room Temperature,"Labrasol ® 100%, M4N 50 mg/mL",>4 days
same,Stability at Room Temperature,"Labrasol ® 100%, M4N 60 mg/mL",>4 days
same,Stability at Room Temperature,"Labrasol ® 100%, M4N 70 mg/mL",>4 days
same,Stability at Room Temperature,"Labrasol ® 100%, M4N 80 mg/mL",>4 days
same,Stability at Room Temperature,M4N 1 mg/mL in 20% HP-β-CD,>7 days
same,Stability at Room Temperature,M4N 1 mg/mL in 30% HP-β-CD,>7 days
same,Stability at Room Temperature,M4N 1 mg/mL in 50% HP-β-CD,>7 days
same,Stability at Room Temperature,"M4N 1 mg/mL in 50% HP-β-CD, 1.25% PVP (w/v)",<3 days
same,Stability Time at Room Temperature,M4N 1 mg/mL in Peppermint Oil,>3 days
same,stable at room temperature,M4N 1 mg/mL in Tween® 20,more than 7 days
same,stable at room temperature,M4N 1 mg/mL in Tween® 80,more than 3 days

# — US20090022803A1, “Oral Formulations For Delivery of Catecholic Butanes Including Ndga Compounds” (priority 2005, published 2009)
